This passage reports TGI and GI50 results from PubChem BioAssay (NCI).

Values joined by “and” are separate entries in the source; they are usually repeats but may differ in a detail not shown here. Equal entries are not always repeated.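 Where inhibition never reached the appropriate level, the endpoint shown equals the highest concentration tested. Otherwise, values were interpolated linearly from a five-concentration, 48-hour dose response in 96-well plates. GI50 marks 50% less growth. TGI: total growth inhibition.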

Test systems include XF 498 CNS; DMS 273 small cell lung; LXFL 529 NSCLC; DMS 114 small cell lung; M19-MEL melanoma; SNB-78 CNS; MDA-MB-231 breast; DU-145 prostate; BT-549 breast; DLD-1 colon; MDA-MB-435.
Holding throughout (test): DTP human tumour cell line panel, 48 h

Turning to `O=c1c2ccccc2[nH]c2c(O)ccc(O)c12`, the TGI in the experiment with XF 498 CNS is 30.9 µM; in the experiment on DMS 273 small cell lung it was 30.5 µM; with LXFL 529 NSCLC it was 28.5 µM; in the experiment with DMS 114 small cell lung, 42.5 µM; in the experiment on M19-MEL melanoma, 63.6 µM; in the experiment on SNB-78 CNS, 39.6 µM.
Take `c1ccc(CN2CCc3[nH]c4ccccc4c3C2)cc1`: the TGI was 48.9 µM in the experiment on MDA-MB-231 breast; 78.3 µM in the experiment with DU-145 prostate; 68.6 µM with XF 498 CNS; over 100 µM in the experiment on DMS 273 small cell lung; 48.6 µM with LXFL 529 NSCLC; 47.3 µM with DMS 114 small cell lung. Also, the TGI with BT-549 breast was over 100 µM; in the experiment on M19-MEL melanoma it was over 82.1 µM; in the experiment on SNB-78 CNS it was over 100 µM; in the experiment on DLD-1 colon, over 100 µM; in the experiment with MDA-MB-435 it was 46.7 µM.
Take `CC(C)c1ccc(C2NC(=S)NC3=C2c2ccccc2C3=O)cc1` (stereo unspecified): the TGI with MDA-MB-231 breast is 31 µM; with DU-145 prostate, 31.7 µM; with XF 498 CNS, over 100 µM; in the experiment with DMS 273 small cell lung it was over 100 µM; in the experiment with LXFL 529 NSCLC it was over 100 µM; in the experiment with DMS 114 small cell lung it was 58.8 µM. The total growth inhibition concentration (TGI) was 31.6 µM in the experiment with BT-549 breast, over 100 µM in the experiment with M19-MEL melanoma, over 100 µM in the experiment on DLD-1 colon and 21.4 µM in the experiment on MDA-MB-435.
With `CCc1cccc(C(C)C)c1NC(=O)CCl`, the TGI in the experiment with XF 498 CNS, in the experiment with DMS 273 small cell lung, in the experiment with LXFL 529 NSCLC, in the experiment on M19-MEL melanoma, with SNB-78 CNS and in the experiment with DLD-1 colon was over 100 µM each time.
As to `Cc1ccc(S(=O)(=O)NC(=O)NCCc2ccccc2)cc1`, the TGI with XF 498 CNS, in the experiment with LXFL 529 NSCLC, in the experiment on DMS 114 small cell lung, in the experiment on M19-MEL melanoma, in the experiment with SNB-78 CNS and in the experiment with DLD-1 colon was over 100 µM throughout.
With `Nc1ccc(-c2cc(C(=O)Nc3nccs3)[nH]c(=S)n2)cc1`, the TGI with XF 498 CNS, with LXFL 529 NSCLC, in the experiment on DMS 114 small cell lung, in the experiment with M19-MEL melanoma, in the experiment with SNB-78 CNS and in the experiment on DLD-1 colon was over 100 µM in each case.
For the compound `C[P+](C)(C)C`, the TGI in the experiment with XF 498 CNS, with LXFL 529 NSCLC, in the experiment with DMS 114 small cell lung, in the experiment on M19-MEL melanoma, with SNB-78 CNS and with DLD-1 colon was over 100 µM throughout.
As to `CC1=C(C(=O)NCc2ccccc2)C(c2ccc(Cl)c(Cl)c2)C(C(=O)NCc2ccccc2)=C(C)N1`, the TGI in the experiment on XF 498 CNS, with DMS 273 small cell lung, in the experiment on LXFL 529 NSCLC, in the experiment on DMS 114 small cell lung, in the experiment with M19-MEL melanoma and in the experiment on SNB-78 CNS was over 100 µM in each case. The same compound came in with a TGI in the experiment with DLD-1 colon of over 100 µM.
With `CC1=CC(C)(c2c[nH]c3ccccc23)CC(C)(C)c2c1[nH]c1ccccc21` (stereo unspecified), the TGI was 72.1 µM in the experiment with XF 498 CNS; over 100 µM in the experiment on LXFL 529 NSCLC; 36.5 µM with DMS 114 small cell lung; 43.7 µM in the experiment on M19-MEL melanoma; over 100 µM with SNB-78 CNS; 27.2 µM with DLD-1 colon.
On to `Cc1cccc(C)c1NC(=O)CCC/C(CC(=O)c1ccc(F)cc1)=N\NC(=O)C(=O)NN`, for which the TGI with XF 498 CNS, with DMS 273 small cell lung, with LXFL 529 NSCLC, in the experiment with DMS 114 small cell lung, in the experiment on M19-MEL melanoma and in the experiment with SNB-78 CNS was over 100 µM each time. Besides, the TGI in the experiment on DLD-1 colon is over 100 µM.
Turning to `CC1(C)CCCC2(C)C3C(O)CC2(C)C(O)C31` (stereo unspecified), the TGI with XF 498 CNS, with LXFL 529 NSCLC, in the experiment with DMS 114 small cell lung, in the experiment with M19-MEL melanoma, with SNB-78 CNS and in the experiment on DLD-1 colon was over 100 µM throughout.
Take `Cn1c(=O)nc2n(-c3ccc(Cl)cc3)c(-c3ccccc3)c(-c3ccccc3)nc-2c1=O`: the TGI is 42.2 µM in the experiment with XF 498 CNS; 59.3 µM in the experiment on DMS 273 small cell lung; over 100 µM with LXFL 529 NSCLC; over 100 µM with DMS 114 small cell lung; over 100 µM with SNB-78 CNS; over 100 µM in the experiment with DLD-1 colon.
As to `C[C@H]1C/C=C/[C@H]2[C@@H]3O[C@]3(C)[C@@H](C)[C@H]3[C@H](Cc4ccccc4)NC(=O)[C@]32OC(=O)O/C=C/[C@@](C)(O)C1=O`, the TGI is 3.36 µM with MDA-MB-231 breast; > 96.8 µM and 64.2 µM in the experiment with DMS 273 small cell lung; 9.99 µM and 20.2 µM and 33.3 µM in the experiment on DMS 114 small cell lung; 24.2 µM and 38.9 µM and 56.8 µM in the experiment with M19-MEL melanoma. For the same compound, the GI50 with XF 498 CNS is under 0.025 µM; in the experiment with DMS 273 small cell lung, 0.0125 µM; in the experiment with DMS 114 small cell lung, 0.0706 µM and 0.025 µM; with M19-MEL melanoma, 0.0356 µM and 0.025 µM; in the experiment on SNB-78 CNS, 0.024 µM and 0.025 µM.
`Cc1ccc(S(=O)(=O)N/N=C(\c2nc3ccc([N+](=O)[O-])cc3[nH]c2=O)C(O)c2ccc([N+](=O)[O-])cc2)cc1` (stereo unspecified): the TGI in the experiment on XF 498 CNS, in the experiment on DMS 273 small cell lung, in the experiment with LXFL 529 NSCLC, in the experiment with DMS 114 small cell lung, with M19-MEL melanoma and in the experiment on SNB-78 CNS was over 100 µM throughout. This compound also registered a TGI with DLD-1 colon of over 100 µM.
As to `CCOC(=O)C1C=C2O[C@@H]3OC4(CCCCC4)O[C@@H]3C2C2C(=O)CCC(=O)[C@@]12C(=O)OC` (stereo partly specified), the TGI in the experiment on XF 498 CNS, in the experiment with DMS 273 small cell lung, with LXFL 529 NSCLC, with DMS 114 small cell lung, in the experiment with M19-MEL melanoma and in the experiment with SNB-78 CNS was over 100 µM in each case. Also, the TGI in the experiment on DLD-1 colon is over 100 µM.

The term TGI denotes the concentration giving total growth inhibition. A high value points to lower sensitivity of the cells. A word on the GI50: it is the concentration at which growth is held to half of that of the control.
